Reference: PMC8587785, “A New Class of Uracil–DNA Glycosylase Inhibitors Active against Human and Vaccinia Virus Enzyme” (Molecules, 2021)
“Also recorded” adds a separate entry of the source. Read-outs that look alike come from different tables or passages of the source.

Assays:
[1] = molecular target: T1, vaccinia virus UNG (vvUNG, D4 protein) (Vaccinia virus, UniProt P20536); type: biochemical; conditions: at 100 μM
T1 construct: made in house

[2] = molecular target: T2, hUNG (Homo sapiens, UniProt P13051); test: Uracil–DNA glycosylase assay, biochemical screening against hUNG (cleavage of 32P-labeled ssDNA 20-mer with dU); conditions: for hUNG inhibition, dose response: inhibitors at 10, 100 and 1000 μM; for IC50: conditions used for screening: 50 nM substrate, 20 pM enzyme, 10 min, 37 °C
T2 construct: truncated catalytically active human uracil–DNA glycosylase (hUNG ΔN84); His6 (N); linker with thrombin cleavage site (pET-15b) (N); made in house; host or cells: E. coli BL21(DE3), pET-15b
Procedure: As hUNG excises Ura from single- and double-stranded DNA with similar efficiency, we have used the cleavage of a 20-mer single-stranded DNA oligonucleotide containing a dU residue in position 8 (Section 4.1) to assay hUNG activity in the presence of inhibitors. Twenty-three identified compounds were tested at 10, 100, and 1000 μM (Figure 2a). […] However, even the best inhibitor, 4B, had IC50 between 100 and 1000 μM under the conditions used for screening.
Figure 2 Biochemical screening of the inhibitors identified by molecular docking. (a) hUNG activity in the presence of the inhibitors at 10 μM (black bars), 100 μM (light gray bars), or 1000 μM (dark gray bars). The activity is normalized for that in the absence of the inhibitor. Means and SD of three independent experiments are shown; (b) Structures of the compounds 2D, 3A, 3B, 4B, 4E, 4F, and 4G.
The identified compounds were purchased from Vitas-M Laboratory (Vitas-M Laboratory, Ltd., Hong Kong, China). The reaction mixture (10 μL) included 25 mM sodium phosphate (pH 7.5), 1 mM dithiothreitol, 1 mM Na-EDTA, 50 nM ^32P-labeled substrate, 20 pM enzyme, and the inhibitors at 10, 100, and 1000 μM. The reaction was carried out for 10 min at 37 °C, terminated by adding NaOH to 100 mM and heating for 2 min at 95 °C, and neutralized by an equimolar amount of HCl. The mixture was supplemented with 5 μL of formamide dye (80% formamide, 20 mM Na-EDTA, 0.1% xylene cyanol, 0.1% bromophenol blue), and the reaction products were separated by gel electrophoresis in 20% polyacrylamide/7.2 M urea. The gels were visualized and quantified by phosphorimaging using the Typhoon FLA 9500 system (GE Healthcare, Chicago, IL, USA).

[3] = molecular target: T2, hUNG; test: Inhibition mechanism determination, steady-state kinetics of substrate cleavage by hUNG; type: biochemical; conditions: for θ rel (Akaike’s relative likelihood of the model): best model’s likelihood taken for 1; for Vmax: fit in the presence of the inhibitor; for mode of inhibition: fit to competitive, uncompetitive and mixed models
Procedure: KM and Vmax parameters of the Michaelis–Menten scheme were determined at different inhibitor concentrations, and the results were analyzed by fitting to competitive, uncompetitive, and mixed inhibition models (Figure 3, Table 1). Akaike’s information criterion was used to compare the quality of fit under the models. […] The kinetic values reported for ssDNA cleavage by hUNG in the literature vary widely (0.22–13.8 μM for KM, 647–1060 min^−1 for kcat) yet generally agree with our data.
The reactions were performed as described above except that the substrate concentrations were 0.1, 0.3, 0.5, 0.7, 1, 3, 5, 7, and 10 μM, and the inhibitors concentrations were 0, 100, 300, 500, and 1000 μM. […] To determine the type of inhibition and calculate Ki, the data were fit to the competitive, uncompetitive, and mixed inhibition models using an R script.

[4] = system: HEK 293FT cells; test: Cell toxicity assay (MTT); type: cell-based, human; conditions: for EC50: Homo sapiens, HEK293FT, 72 h, read-out: effective concentration (toxicity)
Excerpt: To assess the toxicity of UNG inhibitors for human cells, we have treated HEK293 cell line with the compounds 4B and 4F as the best inhibitors (Table 1). […] Since Ura preferentially accumulates in DNA from a dUTP pool, we have next tested the toxicity of these UNG inhibitors in the presence of MTX, which is an antimetabolite drug that inhibits dihydrofolate reductase, reduces the availability of tetrahydrofolate, and thus suppresses the conversion of […].
Figure 4 Cytotoxicity of UNG inhibitors. (a) Survival of HEK 293FT cells in the presence of the UNG inhibitors 4B and 4F (0.8–500 μM); (b) survival of HEK 293FT cells in the presence of MTX alone (0.02–10 μM) or 100 μM 4B plus MTX (0.1–10 μM); (c) survival of HEK 293FT cells in the presence of the UNG inhibitors 4B and 4F (0.8–500 μM) plus 0.1 μM MTX. In Panel C, the survival in the presence of 0.1 μM MTX alone is taken for 100%. Mean ± s. e. m. is shown (n = 3).
Human embryonic kidney cells (HEK 293FT) were from Thermo Fisher Scientific (Waltham, MA, USA; Cat. #R70007). The laboratory stock was regularly checked for the absence of mycoplasma contamination by PCR. Cells were grown in T25 cm^2 flasks in the complete medium (Dulbecco’s modified Eagle’s medium supplemented with 10% fetal bovine serum, 1 mM sodium pyruvate, 2 mM L-glutamine, and 1% penicillin–streptomycin–amphotericin B) as adherent monolayer cultures. The cultures were maintained at 37 °C in humidified atmosphere with 5% CO2. Cytotoxicity was determined by the colorimetric MTT (3-(4,5-dimethyl-2-thiazolyl)-2,5-diphenyl-2H-tetrazolium bromide) assay. The cells were harvested by trypsinization, seeded in the complete medium (100 μL per well) into 96-well plates at the density of 1.4×10^4 cells per well, and incubated for 24 h to settle and resume proliferation. MTX was dissolved in 1 M NaOH to 22 mM. […] After 15 min at room temperature to solubilize the formed formazan, A570 and A620 were measured with a Multiskan EX microplate reader (Thermo Fisher Scientific, Waltham, MA, USA). […]

[5] = system: 947 human cell lines; conditions: read-out: median EC50; cited from earlier work
[6] = molecular target: T2, hUNG; conditions: open (not DNA-bound) conformation; cited from earlier work
[7] = system: E. coli UNG; conditions: cited from earlier work
[8] = competitive model, read-out: Ki
[9] = uncompetitive model, read-out: Ki

| Compound | suppression of vvUNG activity [1] | hUNG inhibition, dose response [2] | θ rel (Akaike’s relative likelihood of the model) ([3]; competitive model) | Vmax ([3]; competitive model) [µM/min] | mode of inhibition [3] | θ rel (Akaike’s relative likelihood of the model) ([3]; uncompetitive model) | Vmax ([3]; uncompetitive model) [µM/min] | other results |
| --- | --- | --- | --- | --- | --- | --- | --- | --- |
| Cc1ccc(C=C2C(=O)NC(=O)NC2=O)o1 [2D] | ≈ 50% | progressively lower substrate cleavage with the increasing inhibitor concentration | – | – | – | – | – | – |
| CN(C)c1ccc(C=C2C(=O)NC(=O)NC2=O)cc1 [3A] | ≈ 50% | progressively lower substrate cleavage with the increasing inhibitor concentration; also recorded: weak dose response | 0.655 | 0.029 ± 0.003 | the uncompetitive model was marginally better | best model | 0.034 ± 0.004 | Ki ([3]; Ki, competitive model): 530 ± 270 µM; Ki ([3]; Ki, uncompetitive model): 1300 ± 500 µM |
| O=C1NC(=O)C(=Cc2ccco2)C(=O)N1 [3B] | ≈ 50% | – | – | – | – | – | – | – |
| COc1ccc(C=C2C(=O)NC(=O)NC2=O)c(OC)c1 [4B] | ≈ 50% | progressively lower substrate cleavage with the increasing inhibitor concentration; also recorded: more pronounced dose response | best model | 0.019 ± 0.001 | clearly better described by the competitive inhibition model | 2.53 × 10^−5 | 0.024 ± 0.003 | Ki [3, 8]: 140 ± 40 µM; Ki [3, 9]: 550 ± 140 µM; EC50 [4]: 69 ± 1 µM; IC50 [2]: submillimolar range; IC50 ([2]; read-out: IC50): 100 to 1000 µM |
| Cc1ccc(C#N)c(SCc2cc(=O)[nH]c(=O)[nH]2)n1 [4E] | – | progressively lower substrate cleavage with the increasing inhibitor concentration | – | – | – | – | – | – |
| COc1cc(C=C2C(=O)NC(=O)NC2=O)cc(Cl)c1OC [4F] | – | progressively lower substrate cleavage with the increasing inhibitor concentration; also recorded: more pronounced dose response | 0.8 | 0.053 ± 0.014 | the uncompetitive model was marginally better | best model | 0.075 ± 0.028 | Ki [3, 8]: 200 ± 130 µM; Ki [3, 9]: 250 ± 140 µM; EC50 [4]: 77 ± 1 µM; IC50 [2]: submillimolar range |
| CC(Oc1ccc(C=C2C(=O)NC(=O)NC2=O)cc1)C(=O)O (centres unmarked) [4G] | – | progressively lower substrate cleavage with the increasing inhibitor concentration; also recorded: more pronounced dose response | best model | 0.042 ± 0.002 | clearly better described by the competitive inhibition model | 0.312 | 0.043 ± 0.003 | Ki ([3]; Ki, competitive model): 3300 ± 2300 µM; Ki ([3]; Ki, uncompetitive model): > 10000 µM |
| CN(Cc1cnc2nc(N)nc(N)c2n1)c1ccc(C(=O)N[C@@H](CCC(=O)O)C(=O)O)cc1 [MTX, methotrexate, reference compound] | – | – | – | – | – | – | – | reduction in the cell viability ([4]; 0.1 μM MTX without the inhibitors): 20–25%; EC50 [5]: 0.595 µM |
| O=C(O)C1=CC(=C(c2ccc(O)c(C(=O)O)c2)c2ccc(O)c(C(=O)O)c2)C=CC1=O [aurintricarboxylic acid] | – | – | – | – | – | – | – | affinity [6]: submicromolar affinity |
| CNC(C)C1CCC(N)C(OC2C(N)CC(N)C(OC3OCC(C)(O)C(NC)C3O)C2O)O1 (centres unmarked) [gentamicin] | – | – | – | – | – | – | – | IC50 [7]: ~1000 µM |
